According to the Kinase Knowledgebase extract (Sharma et al. 2016):

target: PIK3CG (human) (UniProt P48736); test: Assessment of PIK3CG Kinase Activity
Sequence (P48736 whole entry, looked up): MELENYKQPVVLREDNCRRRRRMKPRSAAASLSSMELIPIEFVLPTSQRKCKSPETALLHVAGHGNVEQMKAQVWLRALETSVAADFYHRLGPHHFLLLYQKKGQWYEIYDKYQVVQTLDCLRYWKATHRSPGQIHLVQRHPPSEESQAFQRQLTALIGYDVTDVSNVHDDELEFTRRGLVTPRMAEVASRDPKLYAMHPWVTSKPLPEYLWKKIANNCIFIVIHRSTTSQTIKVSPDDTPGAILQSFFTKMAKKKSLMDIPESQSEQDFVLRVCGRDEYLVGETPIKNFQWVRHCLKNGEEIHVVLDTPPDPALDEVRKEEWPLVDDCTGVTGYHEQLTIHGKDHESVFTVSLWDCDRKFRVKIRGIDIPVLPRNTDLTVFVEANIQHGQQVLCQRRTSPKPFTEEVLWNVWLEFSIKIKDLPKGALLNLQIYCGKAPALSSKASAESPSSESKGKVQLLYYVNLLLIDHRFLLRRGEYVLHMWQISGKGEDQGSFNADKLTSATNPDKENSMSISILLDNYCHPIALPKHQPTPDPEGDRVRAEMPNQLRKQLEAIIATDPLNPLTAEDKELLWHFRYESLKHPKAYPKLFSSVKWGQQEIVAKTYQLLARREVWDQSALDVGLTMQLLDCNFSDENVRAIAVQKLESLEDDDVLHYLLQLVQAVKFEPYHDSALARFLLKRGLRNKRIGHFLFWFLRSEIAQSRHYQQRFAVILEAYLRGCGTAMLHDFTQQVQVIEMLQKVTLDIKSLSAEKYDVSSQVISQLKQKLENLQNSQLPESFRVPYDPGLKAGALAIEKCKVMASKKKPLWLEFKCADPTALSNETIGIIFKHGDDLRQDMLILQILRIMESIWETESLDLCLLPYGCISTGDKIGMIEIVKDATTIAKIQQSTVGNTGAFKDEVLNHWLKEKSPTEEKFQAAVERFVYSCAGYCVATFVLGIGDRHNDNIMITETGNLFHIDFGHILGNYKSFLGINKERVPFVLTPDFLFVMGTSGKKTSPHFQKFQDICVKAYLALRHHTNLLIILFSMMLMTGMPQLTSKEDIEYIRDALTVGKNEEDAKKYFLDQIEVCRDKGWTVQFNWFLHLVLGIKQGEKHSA

IC50, < 800 nM:
CCc1cnc(CCNC(=O)Nc2nc3c(s2)-c2nc(-c4ccccc4F)ncc2CC3)o1
O=C(Nc1ccc(N2CCNCC2)cc1)Nc1nc2c(s1)-c1nc(-c3ccccc3Cl)ncc1CC2
CN(Cc1cccc(CNC(=O)Nc2nc3c(s2)-c2nc(-c4ccccc4Cl)ncc2CC3)c1)C(=O)OC(C)(C)C
O=C(NCCc1ccc2c(c1)OCCO2)Nc1nc2c(s1)-c1nc(-c3ccccc3Cl)ncc1CC2
CCN(CC)CCNC(=O)Nc1nc2c(s1)-c1nc(-c3ccccc3Cl)ncc1CC2
O=C(Nc1nc2c(s1)-c1nc(-c3ccccc3Cl)ncc1CC2)N1CCC(c2c[nH]c3ccccc23)CC1
CC(C)(C)OC(=O)N1CCCCC1CNC(=O)Nc1nc2c(s1)-c1nc(-c3ccccc3Cl)ncc1CC2 (configuration not stated)
CC(C)(C)OC(=O)CCNC(=O)Nc1nc2c(s1)-c1nc(-c3ccccc3Cl)ncc1CC2
O=C(NCCc1ccncc1)Nc1nc2c(s1)-c1nc(-c3ccccc3Cl)ncc1CC2
Cc1nc2ccccc2n1CC(C)(C)NC(=O)Nc1nc2c(s1)-c1nc(-c3ccccc3Cl)ncc1CC2
Cn1cccc1CCNC(=O)Nc1nc2c(s1)-c1nc(-c3ccccc3Cl)ncc1CC2
O=C(NCc1ccc2cc[nH]c2c1)Nc1nc2c(s1)-c1nc(-c3ccccc3Cl)ncc1CC2
O=C(NCCc1cccc(N2CCNC2=O)c1)Nc1nc2c(s1)-c1nc(-c3ccccc3Cl)ncc1CC2
CCc1noc(CCNC(=O)Nc2nc3c(s2)-c2nc(-c4ccccc4Br)ncc2CC3)n1
O=C(NCc1nnn[nH]1)Nc1nc2c(s1)-c1nc(-c3ccccc3Cl)ncc1CC2
CC(C)(C)c1ncc2c(n1)-c1sc(NC(=O)NCc3cccc(N4CCNC4=O)c3)nc1CC2
CC(C)(C)OC(=O)Nc1cccc(CNC(=O)Nc2nc3c(s2)-c2nc(-c4ccccc4Cl)ncc2CC3)c1
O=C(Nc1nc2c(s1)-c1nc(-c3ccccc3Cl)ncc1CC2)N1CC[C@@H](NC(=O)N2CCCCC2)C1
CCNC(=O)Nc1nc2c(s1)-c1nc(-c3ccccc3Br)ncc1CC2
NC(=O)Nc1nc2c(s1)-c1nc(-c3ccccc3F)ncc1CC2
CNC(=O)Nc1nc2c(s1)-c1nc(-c3ccccc3Br)ncc1CC2
CN(C)C(=O)CNC(=O)Nc1nc2c(s1)-c1nc(-c3ccccc3Cl)ncc1CC2
O=C(NCCc1ccccc1)Nc1nc2c(s1)-c1nc(-c3ccccc3Cl)ncc1CC2
O=C(NCCc1nc(C2CC2)no1)Nc1nc2c(s1)-c1nc(-c3ccccc3Cl)ncc1CC2
COc1cccc(CCNC(=O)Nc2nc3c(s2)-c2nc(-c4ccccc4Cl)ncc2CC3)c1OC
O=C(NCc1ccc2c(c1)OCO2)Nc1nc2c(s1)-c1nc(-c3ccccc3Cl)ncc1CC2
O=C(Nc1nc2c(s1)-c1nc(-c3ccccc3Cl)ncc1CC2)N1CCCC1
CC(C)c1nnc(CCNC(=O)Nc2nc3c(s2)-c2nc(-c4ccccc4Cl)ncc2CC3)o1
CCc1cnc(CCNC(=O)Nc2nc3c(s2)-c2nc(-c4ccccc4Br)ncc2CC3)o1
CNC(=O)Nc1nc2c(s1)-c1nc(-c3ccccc3C(F)(F)F)ncc1CC2
CC(C)NC(=O)N[C@H]1CCN(C(=O)Nc2nc3c(s2)-c2nc(-c4ccccc4Cl)ncc2CC3)C1
CC(C)(C)CC(=O)N[C@H]1CCN(C(=O)Nc2nc3c(s2)-c2nc(-c4ccccc4Cl)ncc2CC3)C1
O=C(NCCc1nc(C2CC2)no1)Nc1nc2c(s1)-c1nc(-c3ccccc3Br)ncc1CC2
O=C(NC[C@H]1CCCN1)Nc1nc2c(s1)-c1nc(-c3ccccc3Cl)ncc1CC2
O=C(O)CC1(CNC(=O)Nc2nc3c(s2)-c2nc(-c4ccccc4Cl)ncc2CC3)CCCCC1
O=C(Nc1nc2c(s1)-c1nc(-c3ccccc3Cl)ncc1CC2)N1CC[C@H](NS(=O)(=O)N2CCCC2)C1
O=C(NCC1CCCN(c2ncccn2)C1)Nc1nc2c(s1)-c1nc(-c3ccccc3Cl)ncc1CC2 (configuration not stated)
CC(C)CN(C)C(=O)N[C@H]1CCN(C(=O)Nc2nc3c(s2)-c2nc(-c4ccccc4Cl)ncc2CC3)C1
CC(C)CNC(=O)CCNC(=O)Nc1nc2c(s1)-c1nc(-c3ccccc3Cl)ncc1CC2
O=C(NCc1cccc(N2CCNC2=O)c1)Nc1nc2c(s1)-c1nc(-c3ccccc3Cl)ncc1CC2
COCC(=O)N[C@H]1CCN(C(=O)Nc2nc3c(s2)-c2nc(-c4ccccc4Cl)ncc2CC3)C1
CC(C)(C)OC(=O)CCNC(=O)Nc1nc2c(s1)-c1nc(C(C)(C)C)ncc1CC2
CC(C)(CNc1ncccn1)NC(=O)Nc1nc2c(s1)-c1nc(-c3ccccc3Cl)ncc1CC2
O=C(NCc1ccccc1)Nc1nc2c(s1)-c1nc(-c3ccccc3Cl)ncc1CC2
O=C(NCCc1ccc2c(c1)OCO2)Nc1nc2c(s1)-c1nc(-c3ccccc3Cl)ncc1CC2
Cn1ccnc1CNC(=O)Nc1nc2c(s1)-c1nc(-c3ccccc3Cl)ncc1CC2
O=C(NCc1cccc(C(=O)NC2CCCCC2)c1)Nc1nc2c(s1)-c1nc(-c3ccccc3Cl)ncc1CC2
CC(C)OCCCNC(=O)Nc1nc2c(s1)-c1nc(-c3ccccc3Cl)ncc1CC2
CC(=O)NCC1CCCN(C(=O)Nc2nc3c(s2)-c2nc(-c4ccccc4Cl)ncc2CC3)C1 (configuration not stated)
CCc1noc(CCNC(=O)Nc2nc3c(s2)-c2nc(-c4ccccc4Cl)ncc2CC3)n1
CCn1cnc(CCNC(=O)Nc2nc3c(s2)-c2nc(-c4ccccc4Cl)ncc2CC3)c1
CNC(=O)Nc1nc2c(s1)-c1nc(C(C)(C)C)ncc1CC2
CC(C)c1nnc(CCNC(=O)Nc2nc3c(s2)-c2nc(-c4ccccc4F)ncc2CC3)o1
CC(C)(C)OC(=O)N1CCC[C@@H]1CNC(=O)Nc1nc2c(s1)-c1nc(-c3ccccc3Cl)ncc1CC2
CC(C)COC(=O)N[C@@H]1CCN(C(=O)Nc2nc3c(s2)-c2nc(-c4ccccc4Cl)ncc2CC3)C1
Cn1cc(CNC(=O)Nc2nc3c(s2)-c2nc(-c4ccccc4F)ncc2CC3)cn1
O=C(Nc1nc2c(s1)-c1nc(-c3ccccc3Cl)ncc1CC2)N1CCC(NC(=O)C(F)(F)F)C1 (configuration not stated)
O=C(NCc1ccco1)Nc1nc2c(s1)-c1nc(-c3ccccc3Cl)ncc1CC2
CCN(CC)C(=O)N[C@H]1CCN(C(=O)Nc2nc3c(s2)-c2nc(-c4ccccc4Cl)ncc2CC3)C1
CC(C)CC(=O)Nc1cccc(CNC(=O)Nc2nc3c(s2)-c2nc(-c4ccccc4Cl)ncc2CC3)c1
Cn1cc(CCNC(=O)Nc2nc3c(s2)-c2nc(-c4ccccc4Cl)ncc2CC3)cn1
CC(C)(CNc1ccc(C(C)(C)C)cc1)NC(=O)Nc1nc2c(s1)-c1nc(-c3ccccc3Cl)ncc1CC2
NC(=O)c1cccc(CNC(=O)Nc2nc3c(s2)-c2nc(-c4ccccc4Cl)ncc2CC3)c1
O=C(NCc1cccc(N2CCCC2=O)c1)Nc1nc2c(s1)-c1nc(-c3ccccc3Cl)ncc1CC2
CCn1cc(CNC(=O)Nc2nc3c(s2)-c2nc(-c4ccccc4Cl)ncc2CC3)cn1
CN1CCN(Cc2cccc(NC(=O)Nc3nc4c(s3)-c3nc(-c5ccccc5Cl)ncc3CC4)c2)CC1
O=C(Nc1nc2c(s1)-c1nc(-c3ccccc3Cl)ncc1CC2)NC1CCCCC1
CC1CC(c2ccc(O)cc2)CN1C(=O)Nc1nc2c(s1)-c1nc(-c3ccccc3Cl)ncc1CC2 (configuration not stated)
CS(=O)(=O)Nc1cccc(CNC(=O)Nc2nc3c(s2)-c2nc(-c4ccccc4Cl)ncc2CC3)c1
COc1cccc(CNC(=O)Nc2nc3c(s2)-c2nc(-c4ccccc4Cl)ncc2CC3)c1OC
CN(C)CCCCNC(=O)Nc1nc2c(s1)-c1nc(-c3ccccc3Cl)ncc1CC2
NC(=O)N1Cc2ccc(CNC(=O)Nc3nc4c(s3)-c3nc(-c5ccccc5Cl)ncc3CC4)cc2C1
CCOC(=O)CCNC(=O)Nc1nc2c(s1)-c1nc(-c3ccccc3Cl)ncc1CC2
CC(C)(C)CNC(=O)CCNC(=O)Nc1nc2c(s1)-c1nc(-c3ccccc3Cl)ncc1CC2
O=C(Nc1nc2c(s1)-c1nc(-c3ccccc3Cl)ncc1CC2)N1CCC(N2CCNC2=O)CC1
CC(C)CC(=O)N[C@H]1CCN(C(=O)Nc2nc3c(s2)-c2nc(-c4ccccc4Cl)ncc2CC3)C1
CC(C)COC(=O)N[C@H]1CCN(C(=O)Nc2nc3c(s2)-c2nc(-c4ccccc4Cl)ncc2CC3)C1
O=C(Nc1nc2c(s1)-c1nc(-c3ccccc3Cl)ncc1CC2)N1CC[C@H](NS(=O)(=O)N2CCOCC2)C1
Cc1nn(C)cc1CNC(=O)Nc1nc2c(s1)-c1nc(-c3ccccc3Cl)ncc1CC2
CC(C)(C)OCCNC(=O)Nc1nc2c(s1)-c1nc(-c3ccccc3Cl)ncc1CC2
COc1cccc(CCNC(=O)Nc2nc3c(s2)-c2nc(-c4ccccc4Cl)ncc2CC3)c1
O=C(Nc1nc2c(s1)-c1nc(-c3ccccc3Cl)ncc1CC2)N1CCCC(c2nc3ccccc3[nH]2)C1 (configuration not stated)
